In US10047050B2, “3,4-di-substituted pyridine compound, methods of using and compositions comprising the same” (ARDEA BIOSCIENCES, INC., priority 2011, dated 2018) one finds EC50 data, which are given here for 1 compound.

In the assay the target is T1, URAT-1 model (Homo sapiens, UniProt Q96S37).
T1 sequence (Q96S37 1-553): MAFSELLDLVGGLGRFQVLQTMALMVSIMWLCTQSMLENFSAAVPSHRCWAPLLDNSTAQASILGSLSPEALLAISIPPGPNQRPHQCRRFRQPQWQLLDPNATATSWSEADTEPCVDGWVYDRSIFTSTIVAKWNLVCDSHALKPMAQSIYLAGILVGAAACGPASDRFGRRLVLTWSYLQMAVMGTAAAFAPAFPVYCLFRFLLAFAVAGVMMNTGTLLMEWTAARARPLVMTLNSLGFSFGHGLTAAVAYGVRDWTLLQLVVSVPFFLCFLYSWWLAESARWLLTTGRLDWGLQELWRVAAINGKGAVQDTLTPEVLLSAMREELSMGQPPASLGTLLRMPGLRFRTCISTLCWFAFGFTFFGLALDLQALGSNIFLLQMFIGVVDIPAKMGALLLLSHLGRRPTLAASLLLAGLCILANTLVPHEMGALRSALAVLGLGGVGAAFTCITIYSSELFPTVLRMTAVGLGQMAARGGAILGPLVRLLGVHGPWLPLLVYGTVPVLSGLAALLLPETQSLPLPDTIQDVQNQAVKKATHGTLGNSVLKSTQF
The assay is described as follows: URAT1-model assay, 14C-uric acid transport in HEK293/URAT1-model cells. To be noted: 125 μM 14C-uric acid, 10 minutes. The assay is classed as cell-based. The procedure: Transfections of HEK293 cells with a model URAT1 construct was performed using L2000 transfection reagent (Invitrogen) as described by the manufacturer. After 24 h the transfected cells were split into 10 cm tissue culture plates and grown for 1 day after which the medium was replaced with fresh growth medium containing G418 (Gibco) at 0.5 mg/ml final concentration. Drug-resistant colonies were selected after approximately 8 days and then tested for ^14C-uric acid transport activity. The HEK293/URAT1-model cells are plated on Poly-D-Lysine Coated 96-well Plates at a density of 125,000 cells per well.
Cells were grown overnight (20-26 hours) at 37° C. in an incubator. Plates were allowed to come to room temperature and media was washed out with one wash of 250 μl of Wash Buffer (125 mM Na Gluconate, 10 mM Hepes ph 7.3). […] Assay Buffer is 125 mM Sodium Gluconate, 4.8 mM Potassium Gluconate, 1.2 mM Potassium phosphate, monobasic, 1.2 mM magnesium sulfate, 1.3 mM Ca Gluconate, 5.6 mM Glucose, 25 mM HEPES, pH 7.3. Plates were incubated at room temperature for 10 minutes then washed 3 times with 50 μl Wash Buffer and 3 times with 250 μl Wash Buffer. Microscint 20 Scintillation Fluid was added and plates were incubated overnight at room temperature to equilibrate. Plates are then read on the TopCount Plate Reader and an EC50 value generated. […]

Compound `CC(C)(Sc1ccncc1-c1ccc(C#N)c2ccccc12)C(=O)O` [2-((3-(4-cyanonaphthalen-1-yl)pyridin-4-yl)thio)-2-methylpropanoic acid] registered a concentration for a half-maximal effect (EC50) not above 50 nM.
